From ChEMBL document CHEMBL4483862, “Open-source discovery of chemical leads for next-generation chemoprotective antimalarials” (2018)

Test system: Plasmodium berghei
Assay: Luciferase/luciferin-expressing antifolate-resistant parasites were used to infect a culture of HepG2 cells that were pre-incubated with compounds. Infected hepatocytes emit light due to the luciferase reaction. Assay results are presented as the percent inhibition of light emission compared to control. […]
Format: functional
Conditions: sporozoite; for IC90: read-out: LUCIFERASE INFECTION ASSAY - IC90
[1] = read-out: LUCIFERASE INFECTION ASSAY - IC50

Row | Structure (SMILES) | IC90 | IC50 [1] | further results
1 | COc1ccc(Nc2nccc3c2cc(-c2ccccc2OC)n3C)c(OC)c1 | 8.07 µM |  | IC50 (PBLUC_HILL_SLOPE 3.43, PBLUC_R_SQUARED 0.599, read-out: LUCIFERASE INFECTION ASSAY - IC50): 4.25 µM
2 | CC[n+]1ccccc1C=Cc1ccc(N(C)C)cc1 | 6.2 µM |  | IC50 (HEPG2TOX_HILL_SLOPE 3.25, HEPG2TOX_R_SQUARED 0.92, PBLUC_HILL_SLOPE 1.1, PBLUC_R_SQUARED 0.874, read-out: LUCIFERASE INFECTION ASSAY - IC50): 0.835 µM
3 | Cn1cc(-c2cnc3cnc(-c4ccc5c(c4)OCO5)cn23)cn1 | > 10.3 µM |  | IC50 (PBLUC_HILL_SLOPE 3.19, PBLUC_R_SQUARED 0.356, read-out: LUCIFERASE INFECTION ASSAY - IC50): 9.57 µM
4 | CC(C)(C)NC(=S)N/N=C/c1c(O)ccc2ccccc12 | 6.74 µM | 2.97 µM | 
5 | OCc1ccc(-c2cnc3cnc(-c4cccnc4)cn23)cc1 | 7.72 µM |  | IC50 (PBLUC_HILL_SLOPE 5.76, PBLUC_R_SQUARED 0.27, read-out: LUCIFERASE INFECTION ASSAY - IC50): 5.27 µM
6 | CCOC(=O)c1ccc2c(c1)nc(-c1ccc(Sc3ccc(C)cc3)c([N+](=O)[O-])c1)n2CC | > 10 µM | > 10 µM | 
7 | O/N=C/c1ncc(C(F)(F)F)cc1Sc1ccc(Cl)cc1 | > 9.92 µM |  | IC50 (FFLUC_HILL_SLOPE 8, FFLUC_R_SQUARED 0.0374, HEPG2TOX_HILL_SLOPE 8.44, HEPG2TOX_R_SQUARED 0.673, PBLUC_HILL_SLOPE 11.8, PBLUC_R_SQUARED 0.204, read-out: LUCIFERASE INFECTION ASSAY - IC50): 9.28 µM
8 | CC(C)c1ccccc1NC(=O)Nc1nc(C(N)Cc2ccc(Cl)cc2)cs1 (stereo not drawn) | > 7.95 µM |  | IC50 (PBLUC_HILL_SLOPE 4.88, PBLUC_R_SQUARED 0.323, read-out: LUCIFERASE INFECTION ASSAY - IC50): 5.13 µM
9 | Cc1cc(Cl)ccc1OCC(=O)c1c(-c2ccccc2)[nH]c2ccccc12 | > 10 µM |  | IC50 (PBLUC_HILL_SLOPE 2.14, 2.22, PBLUC_R_SQUARED 0.753, 0.563, read-out: LUCIFERASE INFECTION ASSAY - IC50): 6.03 µM
10 | N#Cc1cc(-c2nc(-c3ccccc3)cs2)c(N)[nH]c1=S | > 10 µM |  | IC50 (PBLUC_HILL_SLOPE 3, PBLUC_R_SQUARED 0.293, read-out: LUCIFERASE INFECTION ASSAY - IC50): 6.32 µM
11 | CCCCN(C(=O)c1csc(-c2ccc(C(C)C)cc2)n1)c1c(N)n(CCC)c(=O)[nH]c1=O | > 10 µM | > 10 µM | 
12 | COc1ccc(CCn2nc(C(=O)N(C)C)c3c2CCN(CCCc2ccccc2)C3)cc1 | > 7.39 µM | > 7.39 µM | 
13 | Cc1ccc(S(=O)(=O)N2CCN(C(=O)C3CCN(c4nc5ccccc5o4)CC3)CC2)cc1C | 2.62 µM |  | IC50 (HEPG2TOX_HILL_SLOPE 0.685, HEPG2TOX_R_SQUARED 0.962, PBLUC_HILL_SLOPE 3.7, PBLUC_R_SQUARED 0.71, read-out: LUCIFERASE INFECTION ASSAY - IC50): 1.45 µM
14 | Cc1nc(NCc2ccc3c(c2)OCO3)c2c3c(sc2n1)CCCC3 | > 10 µM |  | IC50 (PBLUC_HILL_SLOPE 12.4, PBLUC_R_SQUARED 0.761, read-out: LUCIFERASE INFECTION ASSAY - IC50): 8.99 µM
15 | Cc1cc(C)c(C(=O)OCCC(NS(=O)(=O)c2ccc(Cl)cc2)c2ccccc2)c(C)c1 (stereo not drawn) | > 10 µM | > 10 µM | 
16 | COc1cc2nc(-c3ccccc3)nc(N3CCN(CCN4CCCC4)CC3)c2cc1OC | 7.65 µM |  | IC50 (PBLUC_HILL_SLOPE 1.93, PBLUC_R_SQUARED 0.643, read-out: LUCIFERASE INFECTION ASSAY - IC50): 2.46 µM
17 | COC(=O)C1=C(Nc2ccc(OS(=O)(=O)c3ccc(F)cc3F)cc2)CSC1 | > 7.72 µM | > 7.72 µM | 
18 | O=C1CN(CC(=O)N2N=C(c3ccc4ccccc4c3)CC2c2ccccc2)c2ccccc2N1 (stereo not drawn) | > 10 µM |  | IC50 (PBLUC_HILL_SLOPE 15.5, PBLUC_R_SQUARED 0.336, read-out: LUCIFERASE INFECTION ASSAY - IC50): 9.53 µM
19 | O=[N+]([O-])c1cc(C(F)(F)F)ccc1Sc1nnc(-c2cc(Cl)cc(Cl)c2)[nH]1 | 7.2 µM |  | IC50 (HEPG2TOX_HILL_SLOPE 11.8, HEPG2TOX_R_SQUARED 0.697, PBLUC_HILL_SLOPE 13.2, PBLUC_R_SQUARED 0.063, read-out: LUCIFERASE INFECTION ASSAY - IC50): 6.09 µM
20 | FC(F)(F)c1ccc2nc(SCc3c(Cl)cccc3Cl)[nH]c2c1 | > 7.98 µM | > 7.98 µM | 
21 | O=C(OCc1cc(=O)oc2cc(O)ccc12)c1ccc(Cl)c(S(=O)(=O)N2CCCCCC2)c1 | > 10 µM |  | IC50 (PBLUC_HILL_SLOPE 24.9, PBLUC_R_SQUARED 0.0553, read-out: LUCIFERASE INFECTION ASSAY - IC50): 9.36 µM
22 | OC1CCC(Nc2nn3c(-c4ccc5ccccc5c4)cnc3s2)CC1 (stereo not drawn) | > 9.05 µM | > 9.05 µM | 

Row | Structure (SMILES) | IC90 | IC50 [1] | further results
23 | COc1cc(CNC(=O)c2scnc2C)ccc1OC1CCCC1 | > 10 µM | 2.89 µM | 
24 | Cc1nnnn1/C(=C\c1ccccc1)C(=O)N(Cc1cccs1)c1ccc2c(c1)OCCO2 | > 10 µM | > 10 µM | 
25 | Cc1oc2c(c1C(=O)NCC1CCCO1)C(=O)c1ccccc1C2=O (stereo not drawn) | 0.328 µM |  | IC50 (HEPG2TOX_HILL_SLOPE 84.1, HEPG2TOX_R_SQUARED 0.355, PBLUC_HILL_SLOPE 3.6, PBLUC_R_SQUARED 0.607, read-out: LUCIFERASE INFECTION ASSAY - IC50): 0.178 µM
26 | Cc1c(-c2ccccc2)sc2ncnc(NCc3nnc4ccccn34)c12 | > 10 µM |  | IC50 (HEPG2TOX_HILL_SLOPE 2.41, HEPG2TOX_R_SQUARED 0.925, PBLUC_HILL_SLOPE 1.56, PBLUC_R_SQUARED 0.71, read-out: LUCIFERASE INFECTION ASSAY - IC50): 2.86 µM
27 | Cc1ccc(N2C(=O)c3ccccc3C(C=NNC(=O)c3ccc(CSc4ccc(Cl)cc4)cc3)C2=O)cc1C (stereo not drawn) | > 10 µM |  | IC50 (FFLUC_HILL_SLOPE 1.61, FFLUC_R_SQUARED 0.665, HEPG2TOX_HILL_SLOPE 1.11, HEPG2TOX_R_SQUARED 0.878, read-out: LUCIFERASE INFECTION ASSAY - IC50): > 10 µM
28 | COc1cccc(CNCCCSc2nnnn2-c2ccccc2)c1 | > 9.28 µM | > 9.28 µM | 
29 | O=C(CSCCCN1CCN(c2cccc(Cl)c2)CC1)N/N=C/c1ccccc1 | > 7.66 µM | > 7.66 µM | 
30 | CC(C)(C)c1ccc(-c2cnc3cnc(-c4ccncc4)cn23)cc1 | 4.79 µM |  | IC50 (HEPG2TOX_HILL_SLOPE 0.197, HEPG2TOX_R_SQUARED 0.782, PBLUC_HILL_SLOPE 7.81, PBLUC_R_SQUARED 0.726, read-out: LUCIFERASE INFECTION ASSAY - IC50): 3.62 µM
31 | Cc1ccc(N(Cc2ccccc2)C(=O)C2CCN(S(=O)(=O)c3c(Cl)cccc3Cl)CC2)cc1 | > 10 µM | > 10 µM | 
32 | COc1cccc(-c2cc3c(Nc4ccccc4)nccc3[nH]2)c1 | 3.51 µM |  | IC50 (PBLUC_HILL_SLOPE 41.1, PBLUC_R_SQUARED 0.519, read-out: LUCIFERASE INFECTION ASSAY - IC50): 3.33 µM
33 | O=C(/C=C/c1cccnc1)c1ccc(S(=O)(=O)N2CCCC2)cc1 | 7.23 µM |  | IC50 (HEPG2TOX_HILL_SLOPE 1.78, HEPG2TOX_R_SQUARED 0.606, PBLUC_HILL_SLOPE 4.03, PBLUC_R_SQUARED 0.736, read-out: LUCIFERASE INFECTION ASSAY - IC50): 4.19 µM
34 | CSc1nccc(-c2sc(SC)c3c2CCCC3=O)n1 | > 10.2 µM | > 10.2 µM | 
35 | CC(=O)c1cnc(N)nc1C | > 21.8 µM | > 21.8 µM | 
36 | O=S(=O)(/C=C/c1ccccc1)N1CCCC(c2nc3ccccc3s2)C1 (stereo not drawn) | > 10 µM |  | IC50 (PBLUC_HILL_SLOPE 2.87, PBLUC_R_SQUARED 0.652, read-out: LUCIFERASE INFECTION ASSAY - IC50): > 10 µM
37 | CC(C)CN1/C(=C\c2cccc3[nH]ccc23)C(=O)c2ccccc2S1(=O)=O | > 8.67 µM |  | IC50 (FFLUC_HILL_SLOPE 2.19, FFLUC_R_SQUARED 0.818, HEPG2TOX_HILL_SLOPE 2.77, HEPG2TOX_R_SQUARED 0.93, read-out: LUCIFERASE INFECTION ASSAY - IC50): > 8.67 µM
38 | O=C(CCc1nc2ccccc2n(CCc2ccccc2)c1=O)N1CCC1 | > 10 µM | > 10 µM | 
39 | COc1ccc(CC(N)c2csc(NC(=O)Nc3cccc(C(F)(F)F)c3)n2)cc1 (stereo not drawn) | > 7.56 µM |  | IC50 (PBLUC_HILL_SLOPE 3.34, PBLUC_R_SQUARED 0.752, read-out: LUCIFERASE INFECTION ASSAY - IC50): 5.46 µM
40 | Cc1cc(C)cc(NC(=S)NC2CCCC(C)C2C)c1 (stereo not drawn) | 9.4 µM |  | IC50 (PBLUC_HILL_SLOPE 3.85, PBLUC_R_SQUARED 0.565, read-out: LUCIFERASE INFECTION ASSAY - IC50): 5.32 µM
41 | Cc1cc(N2CCN(C(=O)c3cc(C4CC4)nn3-c3ccccc3)CC2)nc(C(C)C)n1 | > 10 µM |  | IC50 (HEPG2TOX_HILL_SLOPE 7.58, HEPG2TOX_R_SQUARED 0.717, PBLUC_HILL_SLOPE 1.92, PBLUC_R_SQUARED 0.299, read-out: LUCIFERASE INFECTION ASSAY - IC50): 4.83 µM
42 | COC(=O)Cc1[nH]n(-c2nc3ccccc3s2)c(=O)c1C(C)=NCCO | 3.67 µM |  | IC50 (FFLUC_HILL_SLOPE 1.26, FFLUC_R_SQUARED 0.909, HEPG2TOX_HILL_SLOPE 2.15, HEPG2TOX_R_SQUARED 0.817, PBLUC_HILL_SLOPE 1.27, PBLUC_R_SQUARED 0.77, read-out: LUCIFERASE INFECTION ASSAY - IC50): 0.646 µM
43 | CC1(C)CC(=O)C/C(=N\Nc2nc(C(Cl)(Cl)Cl)nc3ccccc23)C1 | > 10 µM |  | IC50 (HEPG2TOX_HILL_SLOPE 0.517, HEPG2TOX_R_SQUARED 0.271, PBLUC_HILL_SLOPE 3.75, PBLUC_R_SQUARED 0.163, read-out: LUCIFERASE INFECTION ASSAY - IC50): 9.3 µM
44 | Cc1ccc2[nH]c3c(c2c1)CCCC3N (stereo not drawn) | 10.5 µM |  | IC50 (HEPG2TOX_HILL_SLOPE 3.36, HEPG2TOX_R_SQUARED 0.51, PBLUC_HILL_SLOPE 2.39, PBLUC_R_SQUARED 0.343, read-out: LUCIFERASE INFECTION ASSAY - IC50): 4.17 µM
